Our source for the activation values is patent EP3246028A1, “QUINOLINE COMPOUNDS FOR INCREASING INSULINE RELEASE” (Max-Planck-Gesellschaft zur Förderung der Wissenschaften …, priority 2016, dated 2017).

This assay concerns RIN-5AH insulinoma beta cell line. In words: Insulin secretion (insulin ELISA of supernatants). Type of assay: cell-based. Particulars: RIN-5AH cells, 5 µM, treated in medium for 2 hours; read-out: AV_INSULIN (percent increase in insulin secretion over a DMSO control). As for the experimental part: Culture medium and supplements were purchased from Life Technologies. The RIN-5AH insulinoma beta cell line was cultured in RPMI 1640 supplemented with 10% FBS, 2 mM glutamine. All culture media contained 1x penicillin-streptomycin. Cells were grown on 15 cm culture plates at 37°C under 5% CO2 in high humidity atmosphere.
To determine the insulin level from the supernatants insulin ELISA kits from Millipore or Mercodia were used. RIN-5AH cells were seeded in 96 well or 12 well plates and grown overnight. RIN-5AH cells never reached more than 80% confluency before treatment. Cells were washed once with PBS before treatment. Cells were treated in medium for 2 hours and with 5 µM of insulin secretagogue according to the present invention, if not otherwise indicated. After treatment 100ul of supernatant was taken. Samples were assayed immediately or stored at -20°C until measurement. Dilutions were made if necessary and ELISA was subsequently performed according to the user's manual. Insulin secretion was normalized to cell number by MTT assay or to total protein amount by BCA assay (ThermoFisher Scientific, 23225). Plates were read on BioTrek Elx800 absorbance reader at 450 nm.
RIN-5AH beta cells were treated with 5 µM compound 12 or 50 µM quinidine or chloroquine according to the above described protocol (Example 1).
In the case of `N#Cc1cc(-c2cccc(N)c2)c2ccc(F)cc2n1` [Compound 1, 4-(3-aminophenyl)-7-fluoro-quinoline-2-carbonitrile], the activation at 5 µM worked out at 151%. As to `CN(C)C(=O)c1cc(Nc2cc(C#N)nc3c(Br)cccc23)c(Cl)cc1Cl` [Compound 2, 5-[(8-bromo-2-cyano-4-quinolyl)amino]-2,4-dichloro-N,N-dimethyl-benzamide], the activation at 5 µM worked out at 125%. The value for `COc1cc(Nc2cc(C#N)nc3c(Br)cccc23)c(Cl)cc1Cl` [Compound 3, 8-bromo-4-(2,4-dichloro-5-methoxy-anilino)quinoline-2-carbonitrile] was 116%; that for `N#Cc1cc(-c2cccc(NS(=O)(=O)c3c(F)cccc3F)c2)c2ccc(F)cc2n1` [Compound 6, N-[3-(2-cyano-7-fluoro-4-quinolyl)phenyl]-2,6-difluoro-benzenesulfonamide] was 94%.

In the case of `COc1cc2c(Oc3ccc(NS(=O)(=O)c4cccc(-c5ccccc5)c4)cc3F)ccnc2cc1OCCCN` [Compound 9, N-[4-[[7-(3-aminopropoxy)-6-methoxy-4-quinolyl]oxy]-3-fluoro-phenyl]-3-phenyl-benzenesulfonamide], the activation at 5 µM worked out at 90%. Then `COc1cc(Nc2cc(C#N)nc3ccc(F)cc23)c(Cl)cc1Cl` [Compound 10, 4-(2,4-dichloro-5-methoxy-anilino)-6-fluoro-quinoline-2-carbonitrile], with 89%. Turning to `N#Cc1cc(-c2cccc(NC(=O)c3cccc(C(F)(F)F)c3)c2)c2ccc(F)cc2n1` [Compound 11, N-[3-(2-cyano-7-fluoro-4-quinolyl)phenyl]-3-(trifluoromethyl)benzamide], the activation at 5 µM is 86%. The value for `N#Cc1cc(Nc2ccc(F)c(Cl)c2)c2cc(Cl)cc(Cl)c2n1` [Compound 14, 6,8-dichloro-4-(3-chloro-4-fluoro-anilino)quinoline-2-carbonitrile] was 78%; that for `COc1ccc2nc(C#N)cc(Nc3cc(OC)c(Cl)cc3Cl)c2c1` [Compound 15, 4-(2,4-dichloro-5-methoxy-anilino)-6-methoxy-quinoline-2-carbonitrile] was 78%. The value for `COc1c(F)ccc2c(Nc3ccc(C)c(C)c3)cc(C#N)nc12` [Compound 16, 4-(3,4-dimethylanilino)-7-fluoro-8-methoxy-quinoline-2-carbonitrile] was 78%. The value for `COc1cc(Nc2c(C#N)cnc3cc(OCCCN)c(OC)cc23)c(Cl)cc1Cl` [Compound 17, 7-(3-aminopropoxy)-4-(2,4-dichloro-5-methoxy-anilino)-6-methoxy-quinoline-3-carbonitrile] was 74%; that for `COc1cc(Nc2cc(C#N)nc3c(F)cccc23)c(Cl)cc1Cl` [Compound 19, 4-(2,4-dichloro-5-methoxy-anilino)-8-fluoro-quinoline-2-carbonitrile] was 70%. `COc1cc2c(Nc3ccc(Cl)cc3Cl)c(C#N)cnc2cc1OCCCN` [Compound 20, 7-(3-aminopropoxy)-4-(2,4-dichloroanilino)-6-methoxy-quinoline-3-carbonitrile]: the activation at 5 µM turned out to be 67%.

Consider `COc1cc2c(Nc3c(Cl)cccc3Cl)cc(C#N)nc2cc1F` [Compound 21, 4-(2,6-dichloroanilino)-7-fluoro-6-methoxy-quinoline-2-carbonitrile], for which the activation at 5 µM turned out to be 65%. The value for `COc1cc(Nc2cc(C#N)nc3c(C(F)(F)F)cccc23)c(Cl)cc1Cl` [Compound 22, 4-(2,4-dichloro-5-methoxy-anilino)-8-(trifluoromethyl)quinoline-2-carbonitrile] was 58%. The value for `CN(C)Cc1cc(Nc2cc(C#N)nc3cc(F)ccc23)c(Cl)cc1Cl` [Compound 23, 4-[2,4-dichloro-5-(dimethylaminomethyl)anilino]-7-fluoro-quinoline-2-carbonitrile] was 57%. The value for `COc1cc2nccc(-c3cccc(Nc4cc(C#N)nc5c(F)cccc45)c3)c2cc1OC` [Compound 24, 4-[3-(6,7-dimethoxy-4-quinolyl)anilino]-8-fluoro-quinoline-2-carbonitrile] was 57%; that for `CN(C)C(=O)c1cc(Nc2cc(C#N)nc3c(F)cccc23)c(Cl)cc1Cl` [Compound 25, 2,4-dichloro-5-[(2-cyano-8-fluoro-4-quinolyl)amino]-N,N-dimethyl-benzamide] was 48%. Turning to `COc1cc2c(Oc3ccc(NS(=O)(=O)c4cccc(-c5ccccc5)c4)cc3F)ccnc2cc1OCCCN1CCOCC1` [Compound 26, N-[3-fluoro-4-[[6-methoxy-7-(3-morpholinopropoxy)-4-quinolyl]oxy]phenyl]-3-phenyl-benzenesulfonamide], the activation at 5 µM was determined as 47%. Then `COc1cc2nccc(-c3cccc(Nc4cc(C(N)=O)nc5c(F)cccc45)c3)c2cc1OC` [Compound 27, 4-[3-(6,7-dimethoxy-4-quinolyl)anilino]-8-fluoro-quinoline-2-carboxamide], with 46%. Regarding `CN(C)C(=O)c1cc(Nc2cc(C#N)nc3cc(F)ccc23)c(Cl)cc1Cl` [Compound 28, 2,4-dichloro-5-[(2-cyano-7-fluoro-4-quinolyl)amino]-N,N-dimethyl-benzamide], the activation at 5 µM turned out to be 45%. Then `N#Cc1cc(Nc2c(Cl)cccc2Cl)c2cc(F)ccc2n1` [Compound 29, 4-(2,6-dichloroanilino)-6-fluoro-quinoline-2-carbonitrile], with 41%; and `COc1cc2c(Nc3cc(OC)c(Cl)cc3Cl)cc(C#N)nc2cc1F` [Compound 75, 4-(2,4-dichloro-5-methoxy-anilino)-7-fluoro-6-methoxy-quinoline-2-carbonitrile], with 116%.
